PMC3242765, “Inhibitors of Alphavirus Entry and Replication Identified with a Stable Chikungunya Replicon Cell Line and Virus-Based Assays” (PLoS ONE, 2011)
Structures can show the parent of a compound that is named as a salt.

Columns and labels:
CHIKV replicon = assay: microbe, parasite or virus in culture; assay type: cell-based, Chikungunya virus (CHIKV)

## CC12CCC(CC1=O)C2(C)C (racemic) [DL-Camphon, Campher (synth.)]
CHIKV replicon
  CHIKV replicon % left: 105.4%
SFV-Rluc
  SFV replication % left (surviving fraction, remaining percentage of SFV replication): 83.9%

## CCN(CC)c1ccc2cc(-c3nc4ccccc4[nH]3)c(=O)oc2c1 [Coumarin 7]
CHIKV replicon
  CHIKV replicon % left: 51.8%
SFV-Rluc
  SFV replication % left (surviving fraction, remaining percentage of SFV replication): 37.3%

## CC(=O)Nc1ccc(S(N)(=O)=O)cc1 [N-Acetylsulfanilamide]
CHIKV replicon
  CHIKV replicon % left: 104.1%
SFV-Rluc
  SFV replication % left (surviving fraction, remaining percentage of SFV replication): 63.2%

## Cc1cc(=O)n(-c2ccccc2)n1C [Antipyrine]
CHIKV replicon
  CHIKV replicon % left: 102.6%
SFV-Rluc
  SFV replication % left (surviving fraction, remaining percentage of SFV replication): 60.1%

## O=C(Oc1ccccc1C(=O)O)c1ccccc1O [Salicylsalicylic acid]
CHIKV replicon
  CHIKV replicon % left: 88.9%
SFV-Rluc
  SFV replication % left (surviving fraction, remaining percentage of SFV replication): 127.4%

## Cc1cc(N)c2ccccc2[n+]1CCCCCCCCCC[n+]1c(C)cc(N)c2ccccc21 [Dequalinium chloride]
CHIKV replicon
  CHIKV replicon % left: 39.4%
SFV-Rluc
  SFV replication % left (surviving fraction, remaining percentage of SFV replication): 62.5%

## O=c1cc(-c2ccc(O)c(O)c2)oc2cc(O)cc(O)c12 [Luteolin]
CHIKV replicon
  CHIKV replicon % left: 95.0%
SFV-Rluc
  SFV replication % left (surviving fraction, remaining percentage of SFV replication): 71.3%

## Cc1c(N)c(=O)n(-c2ccccc2)n1C [4-Aminoantipyrine [ampyrone]]
CHIKV replicon
  CHIKV replicon % left: 89.2%
SFV-Rluc
  SFV replication % left (surviving fraction, remaining percentage of SFV replication): 51.6%

## CCc1nnc(NS(=O)(=O)c2ccc(N)cc2)s1 [Sulfaethidole]
CHIKV replicon
  CHIKV replicon % left: 100.4%
SFV-Rluc
  SFV replication % left (surviving fraction, remaining percentage of SFV replication): 106.4%

## Cc1cc(=O)oc2cc(O)ccc12 [4-Methylumbelliferone]
CHIKV replicon
  CHIKV replicon % left: 105.6%
SFV-Rluc
  SFV replication % left (surviving fraction, remaining percentage of SFV replication): 90.9%

## c1ccc(CN(CC2=NCCN2)c2ccccc2)cc1 [Antazoline hydrochloride]
CHIKV replicon
  CHIKV replicon % left: 100.5%
SFV-Rluc
  SFV replication % left (surviving fraction, remaining percentage of SFV replication): 38.7%

## Oc1cc(O)c2c(c1)O[C@H](c1ccc(O)c(O)c1)[C@H](O)[C@H]2c1c(O)cc(O)c2c1O[C@H](c1ccc(O)c(O)c1)[C@@H](O)C2 [Procyanidin B1]
CHIKV replicon
  CHIKV replicon % left: 104.7%
SFV-Rluc
  SFV replication % left (surviving fraction, remaining percentage of SFV replication): 128.1%

## O=C1Nc2ccc(Cl)cc2C(c2ccccc2Cl)=NC1O (stereo not drawn) [Lorazepam]
CHIKV replicon
  CHIKV replicon % left: 104.9%
SFV-Rluc
  SFV replication % left (surviving fraction, remaining percentage of SFV replication): 98.2%

## O=c1c(O)c(-c2ccc(O)c(O)c2)oc2cc(O)cc(O)c12 [Quercetin]
CHIKV replicon
  CHIKV replicon % left: 110.2%
SFV-Rluc
  SFV replication % left (surviving fraction, remaining percentage of SFV replication): 125.8%

## COc1ccc(-c2cc(=O)c3c(O)cc(O)cc3o2)cc1 [Acacetin]
CHIKV replicon
  CHIKV replicon % left: 103.3%
SFV-Rluc
  SFV replication % left (surviving fraction, remaining percentage of SFV replication): 78.1%

## Cc1c(Cl)cccc1Nc1ccccc1C(=O)O [Tolfenamic acid]
CHIKV replicon
  CHIKV replicon % left: 108.2%
SFV-Rluc
  SFV replication % left (surviving fraction, remaining percentage of SFV replication): 80.1%

## Cn1c(=O)c2[nH]cnc2n(C)c1=O [Theophylline]
CHIKV replicon
  CHIKV replicon % left: 100.4%
SFV-Rluc
  SFV replication % left (surviving fraction, remaining percentage of SFV replication): 87.8%

## C[C@]12C=CC(=O)C=C1CC[C@@H]1[C@@H]2C(=O)C[C@@]2(C)[C@H]1CC[C@]2(O)C(=O)CO [Prednisone]
CHIKV replicon
  CHIKV replicon % left: 54.4%
SFV-Rluc
  SFV replication % left (surviving fraction, remaining percentage of SFV replication): 85.0%

## CC(C(=O)O)c1cccc(C(=O)O)c1 (stereo not drawn) [2-(3-Carboxyphenyl)propionic acid]
CHIKV replicon
  CHIKV replicon % left: 94.3%
SFV-Rluc
  SFV replication % left (surviving fraction, remaining percentage of SFV replication): 105.7%

## CC(=O)Nc1ccc(O)cc1 [Acetaminophen [paracetamol]]
CHIKV replicon
  CHIKV replicon % left: 85.2%
SFV-Rluc
  SFV replication % left (surviving fraction, remaining percentage of SFV replication): 63.5%

## CCOC(=O)c1ccc(O)cc1 [Ethyl 4-hydroxybenzoate]
CHIKV replicon
  CHIKV replicon % left: 94.4%
SFV-Rluc
  SFV replication % left (surviving fraction, remaining percentage of SFV replication): 127.8%

## COc1cc(C(=O)O)cc(OC)c1O [Syringic acid]
CHIKV replicon
  CHIKV replicon % left: 54.4%
SFV-Rluc
  SFV replication % left (surviving fraction, remaining percentage of SFV replication): 61.1%

## O=C1c2c(O)cccc2Cc2cccc(O)c21 [1,8-Dihydroxyanthrone]
CHIKV replicon
  CHIKV replicon % left: 40.9%
SFV-Rluc
  SFV replication % left (surviving fraction, remaining percentage of SFV replication): 27.2%

## CCN(CC)C(C)CN1c2ccccc2Sc2ccccc21 (stereo not drawn) [Ethopropazine hydrochloride]
CHIKV replicon
  CHIKV replicon % left: 59.8%
SFV-Rluc
  SFV replication % left (surviving fraction, remaining percentage of SFV replication): 20.1%

## Oc1cccc(O)c1 [Resorcin]
CHIKV replicon
  CHIKV replicon % left: 72.2%
SFV-Rluc
  SFV replication % left (surviving fraction, remaining percentage of SFV replication): 83.0%

## Cc1cc2nc3c(=O)[nH]c(=O)nc-3n(C[C@H](O)[C@H](O)[C@H](O)CO)c2cc1C [Riboflavin]
CHIKV replicon
  CHIKV replicon % left: 63.1%
SFV-Rluc
  SFV replication % left (surviving fraction, remaining percentage of SFV replication): 43.1%

## O.O.O=c1c(O)c(-c2ccc(O)cc2O)oc2cc(O)cc(O)c12 [Morin dihydrate]
CHIKV replicon
  CHIKV replicon % left: 102.6%
SFV-Rluc
  SFV replication % left (surviving fraction, remaining percentage of SFV replication): 82.9%

## CCC(N)C(O)c1ccc(O)c(O)c1 (stereo not drawn) [Ethylnorepinephrine]
CHIKV replicon
  CHIKV replicon % left: 104.3%
SFV-Rluc
  SFV replication % left (surviving fraction, remaining percentage of SFV replication): 126.8%

## CNC[C@H](O)c1cccc(O)c1.Cl [L-Phenylephrine hydrochloride]
CHIKV replicon
  CHIKV replicon % left: 104.1%
SFV-Rluc
  SFV replication % left (surviving fraction, remaining percentage of SFV replication): 85.1%

## CC(C)NCC(O)c1ccccc1Cl.Cl.O (stereo not drawn) [Clorprenaline hydrochloride]
CHIKV replicon
  CHIKV replicon % left: 102.2%
SFV-Rluc
  SFV replication % left (surviving fraction, remaining percentage of SFV replication): 63.7%

## COc1cc(/C=C/C(=O)O)ccc1O [Ferulic acid]
CHIKV replicon
  CHIKV replicon % left: 55.8%
SFV-Rluc
  SFV replication % left (surviving fraction, remaining percentage of SFV replication): 63.4%

## CN1CCN=C(c2ccccc2)c2cc(Cl)ccc21 [Medazepam]
CHIKV replicon
  CHIKV replicon % left: 101.7%
SFV-Rluc
  SFV replication % left (surviving fraction, remaining percentage of SFV replication): 87.5%

## Cc1nc(NS(=O)(=O)c2ccc(N)cc2)oc1C [Sulfamoxole]
CHIKV replicon
  CHIKV replicon % left: 80.2%
SFV-Rluc
  SFV replication % left (surviving fraction, remaining percentage of SFV replication): 83.0%

## Cc1cc(=O)oc2cc(O)c(O)cc12 [6,7-Dihydroxy-4-methylcoumarin]
CHIKV replicon
  CHIKV replicon % left: 95.4%
SFV-Rluc
  SFV replication % left (surviving fraction, remaining percentage of SFV replication): 131.1%

## O=C(O)c1ccccc1 [Benzoic acid]
CHIKV replicon
  CHIKV replicon % left: 99.1%
SFV-Rluc
  SFV replication % left (surviving fraction, remaining percentage of SFV replication): 71.6%

## CC(C)Cc1ccc(C(C)C(=O)O)cc1 (stereo not drawn) [Ibuprofen]
CHIKV replicon
  CHIKV replicon % left: 100.5%
SFV-Rluc
  SFV replication % left (surviving fraction, remaining percentage of SFV replication): 92.8%

## C[C@H](N)[C@H](O)c1cccc(O)c1.O=C(O)C(O)C(O)C(=O)O [Metaraminol bitartrate salt]
CHIKV replicon
  CHIKV replicon % left: 69.1%
SFV-Rluc
  SFV replication % left (surviving fraction, remaining percentage of SFV replication): 96.5%

## NC[C@@H]1O[C@H](O[C@H]2[C@@H](O)[C@H](O[C@@H]3[C@@H](O)[C@H](N)C[C@H](N)[C@H]3O[C@H]3O[C@H](CN)[C@@H](O)[C@H](O)[C@H]3N)O[C@@H]2CO)[C@H](N)[C@@H](O)[C@@H]1O.O=S(=O)(O)O [Neomycin sulfate]
CHIKV replicon
  CHIKV replicon % left: 100.4%
SFV-Rluc
  SFV replication % left (surviving fraction, remaining percentage of SFV replication): 99.6%

## O=c1oc2c(O)c(O)cc3c(=O)oc4c(O)c(O)cc1c4c23 [Ellagic acid]
CHIKV replicon
  CHIKV replicon % left: 71.1%
SFV-Rluc
  SFV replication % left (surviving fraction, remaining percentage of SFV replication): 64.9%

## O=C1NC2NC(=O)NC2N1 (stereo not drawn) [Acetyleneurea [acetylene carbamide]]
CHIKV replicon
  CHIKV replicon % left: 105.4%
SFV-Rluc
  SFV replication % left (surviving fraction, remaining percentage of SFV replication): 55.2%

## Cn1cnc2c1c(=O)[nH]c(=O)n2C [Theobromine]
CHIKV replicon
  CHIKV replicon % left: 70.2%
SFV-Rluc
  SFV replication % left (surviving fraction, remaining percentage of SFV replication): 112.1%

## O=C(OC[C@H]1OC(O)[C@@](O)(COC(=O)c2cc(O)c(O)c(O)c2)[C@@H]1O)c1cc(O)c(O)c(O)c1 (stereo partly drawn) [Hamamelitannin]
CHIKV replicon
  CHIKV replicon % left: 40.1%
SFV-Rluc
  SFV replication % left (surviving fraction, remaining percentage of SFV replication): 14.7%

## C=CC/C(=N/OS(=O)(=O)[O-])S[C@@H]1O[C@H](CO)[C@@H](O)[C@H](O)[C@H]1O.O.[K+] [Sinigrin monohydrate]
CHIKV replicon
  CHIKV replicon % left: 99.2%
SFV-Rluc
  SFV replication % left (surviving fraction, remaining percentage of SFV replication): 47.6%

## CCNCC(O)c1ccc(O)cc1 (stereo not drawn) [1-(4-Oxyphenyl)-1-oxy-2-ethylamonoethane]
CHIKV replicon
  CHIKV replicon % left: 105.4%
SFV-Rluc
  SFV replication % left (surviving fraction, remaining percentage of SFV replication): 86.9%

## Nc1ccc(Cl)cc1C(=O)c1ccccc1F [2-Amino-5-chloro-2'-fluorobenzophenone]
CHIKV replicon
  CHIKV replicon % left: 82.2%
SFV-Rluc
  SFV replication % left (surviving fraction, remaining percentage of SFV replication): 167.4%

## COc1ccc(C(=O)Cc2c(CCN(C)C)cc3c(c2OC)OCO3)c(C(=O)O)c1OC [Narceine]
CHIKV replicon
  CHIKV replicon % left: 70.7%
SFV-Rluc
  SFV replication % left (surviving fraction, remaining percentage of SFV replication): 118.3%

## CCC(NC(C)C)C(O)c1ccc(O)c(O)c1 (stereo not drawn) [Isoetharine]
CHIKV replicon
  CHIKV replicon % left: 100.4%
SFV-Rluc
  SFV replication % left (surviving fraction, remaining percentage of SFV replication): 90.7%

## Cc1ncc(CO)c(CO)c1O [Pyridoxine hydrochloride]
CHIKV replicon
  CHIKV replicon % left: 71.1%
SFV-Rluc
  SFV replication % left (surviving fraction, remaining percentage of SFV replication): 100.9%
